From ChEMBL document CHEMBL1777797, “Macrocyclic lactams as potent Hsp90 inhibitors with excellent tumor exposure and extended biomarker activity” (Bioorg Med Chem Lett, 2011)
Values after ≈ are worked out from the molar mass of the structure shown.

Assays:
[1] = Solubility of the compound; type: physicochemical
Heat shock protein HSP90 = Heat shock protein HSP90 (Homo sapiens, UniProt P07900+P08238); assay: Inhibition of HSP90 in human HCT-116 cells expressing V-Src-firefly luciferase fusion protein after 3 to 6 hrs; type: cell-based
HCT-116 = assay: Antiproliferative activity against human HCT116 cells; type: functional, cell-based
[2] = Half life in rat liver microsomes; type: ADME, Microsome
[3] = Inhibition of HSP90 by fluorescence polarization assay
A-375 = assay: Antiproliferative activity against human A375 cells
NCI-H1975 = assay: Antiproliferative activity against human NCI-H1975 cells
[4] = Plasma concentration in human MDA-MB-361 xenograft in vivo model at 50 mg/kg, po measured at 24 hrs post dose; type: ADME, organism-based; set-up: dose 50 mg/kg, route oral
[5] = Plasma concentration human MDA-MB-361 xenograft in vivo model at 50 mg/kg, po measured at 6 hrs post dose; type: ADME, organism-based; set-up: dose 50 mg/kg, route oral
A549 = assay: Antiproliferative activity against human A549 cells
[6] = Antiproliferative activity against P-gp overexpressing human KBV1 cells; conditions: kb-v1
[7] = Antiproliferative activity against human KB 8.5 cells
[8] = Antiproliferative activity against human U87MG cells; conditions: u-87mg atcc
DU-145 = assay: Antiproliferative activity against human DU145 cells
[9] = Antiproliferative activity against human WM266.4 cells; conditions: wm 266-4
[10] = Drug level in tumor of human MDA-MB-361 xenograft in vivo model at 50 mg/kg, po measured at 6 hrs post dose; type: ADME, organism-based, Neoplasm; set-up: dose 50 mg/kg, route oral; conditions: read-out: Drug uptake
KB = assay: Antiproliferative activity against human KB cells
BT-474 = assay: Antiproliferative activity against human BT474 cells
MDA-MB-361 = assay: Antiproliferative activity against human MDA-MB-361 cells
[11] = Drug level in tumor of human MDA-MB-361 xenograft in vivo model at 50 mg/kg, po measured at 24 hrs post dose; type: ADME, organism-based, Neoplasm; set-up: dose 50 mg/kg, route oral; conditions: read-out: Drug uptake
T98G = assay: Antiproliferative activity against human T98G cells

Row | Compound | solubility [1] [µg/mL] | IC50 (Heat shock protein HSP90) [nM] | EC50 (HCT-116) [nM] | half-life [2] [min] | IC50 [3] [nM] | also measured
1 | Cc1c2c(n3c1CCCNC[C@H](C)Nc1cc-3ccc1C(N)=O)CC(C)(C)CC2=O | > 100 |  |  |  |  | 
2 | Cc1c2c(n3c1CCCN(C)C(=O)[C@H](C)Nc1cc-3ccc1C(N)=O)CC(C)(C)CC2=O | 34 (≈ 77.9 µM) | 60 | 80 | > 30 |  | 
3 | CC(=O)N1CCc2c(C)c3c(n2-c2ccc(C(N)=O)c(c2)N[C@@H](C)CC1)CC(C)(C)CC3=O |  | 108 |  |  | 111 | 
4 | Cc1c2c(n3c1CCCN[C@H](C)CNc1cc-3ccc1C(N)=O)CC(C)(C)CC2=O | > 100 | 47 | 43 | > 30 | 91 | 
5 | Cc1c2c(n3c1CCN(C(=O)CN)CC[C@H](C)Nc1cc-3ccc1C(N)=O)CC(C)(C)CC2=O |  | 917 | 1010 |  | 90 | 
6 | Cc1c2c(n3c1CCN(C(=O)CCN)CC[C@H](C)Nc1cc-3ccc1C(N)=O)CC(C)(C)CC2=O | > 100 | 6183 | 4890 | > 30 | 200 | 
7 | Cc1c2c(n3c1CCN(C(=O)[C@@H](C)N)CC[C@H](C)Nc1cc-3ccc1C(N)=O)CC(C)(C)CC2=O | > 100 |  |  |  | 119 | 
8 | Cc1c2c(n3c1CCN(C(=O)[C@H](C)N)CC[C@H](C)Nc1cc-3ccc1C(N)=O)CC(C)(C)CC2=O | > 100 |  |  |  |  | 
9 | CC(=O)NCC(=O)N1CCc2c(C)c3c(n2-c2ccc(C(N)=O)c(c2)N[C@@H](C)CC1)CC(C)(C)CC3=O | 5 (≈ 9.85 µM) | 674 | 1550 | > 30 | 140 | 
10 | Cc1c2c(n3c1CCN(C(=O)CN(C)C)CC[C@H](C)Nc1cc-3ccc1C(N)=O)CC(C)(C)CC2=O | > 100 | 109 | 168 | 3 | 140 | 
11 | CC(=O)N1CCCc2c(C)c3c(n2-c2ccc(C(N)=O)c(c2)N[C@@H](C)C1)CC(C)(C)CC3=O | 69 (≈ 153 µM) | 111 | 194 | 11 | 219 | 
12 | CC(=O)N1CCCc2c(C)c3c(n2-c2ccc(C(N)=O)c(c2)NC[C@H]1C)CC(C)(C)CC3=O | > 100 | 1159 | 1900 | 12 | 953 | 
13 | Cc1c2c(n3c1CCCN(C(=O)CN(C)C)[C@H](C)CNc1cc-3ccc1C(N)=O)CC(C)(C)CC2=O | > 100 | > 5000 | 3260 | > 30 | > 5000 | 
14 | Cc1c2c(n3c1CCCN(C(=O)[C@@H](C)N)[C@H](C)CNc1cc-3ccc1C(N)=O)CC(C)(C)CC2=O | > 100 | > 5000 | > 5000 | > 30 | 555 | 
15 | Cc1c2c(n3c1CC(=O)NCCCNc1cc-3ccc1C(N)=O)CC(C)(C)CC2=O |  |  |  |  | 6830 | 
16 | Cc1c2c(n3c1CC(=O)NCC[C@H](C)Nc1cc-3ccc1C(N)=O)CC(C)(C)CC2=O | > 100 | 522 | 815 | > 30 | 214 | 
17 | Cc1c2c(n3c1CC(=O)N(C)CC[C@H](C)Nc1cc-3ccc1C(N)=O)CC(C)(C)CC2=O | > 100 | 160 | 247 | > 30 | 156 | 
18 | Cc1c2c(n3c1CC(=O)N(C(C)C)CC[C@H](C)Nc1cc-3ccc1C(N)=O)CC(C)(C)CC2=O | > 100 | 278 | 865 | 12 | 608 | 
19 | COCCN1CC[C@H](C)Nc2cc(ccc2C(N)=O)-n2c(c(C)c3c2CC(C)(C)CC3=O)CC1=O | > 100 | 108 | 359 | > 30 | 222 | 
20 | Cc1c2c(n3c1CC(=O)N(CCN(C)C)CC[C@H](C)Nc1cc-3ccc1C(N)=O)CC(C)(C)CC2=O | > 100 | 249 | 330 | > 30 | 191 | 
21 | CC(=O)NCCN1CC[C@H](C)Nc2cc(ccc2C(N)=O)-n2c(c(C)c3c2CC(C)(C)CC3=O)CC1=O | > 100 | > 5000 | > 5000 | > 30 | 407 | 
22 | Cc1c2c(n3c1CCCNC(=O)[C@H](C)Nc1cc-3ccc1C(N)=O)CC(C)(C)CC2=O | > 100 | 79 |  | > 30 | 82 | IC50 (A-375): 23 nM; IC50 (NCI-H1975): 47 nM; concentration at 24 h [4]: 8 ng/mL; concentration at 6 h [5]: 146 ng/mL; IC50 (A549): 23 nM; IC50 [6]: > 1000 nM; IC50 [7]: 49 nM; IC50 [8]: 80 nM; IC50 (DU-145): 45 nM; IC50 [9]: 92 nM; concentration at 6 h [10]: 2130 ng/g; IC50 (KB): 22 nM; IC50 (BT-474): 23 nM; IC50 (MDA-MB-361): 111 nM; concentration at 24 h [11]: 1270 ng/g; IC50 (T98G): 42 nM
23 | Cc1c2c(n3c1CCCNC(=O)[C@@H](C)Nc1cc-3ccc1C(N)=O)CC(C)(C)CC2=O |  | 123 | 175 |  | 268 | 
24 | Cc1c2c(n3c1CCCN(CCN)C(=O)[C@H](C)Nc1cc-3ccc1C(N)=O)CC(C)(C)CC2=O | > 100 | > 20000 | > 20000 |  | 1180 | 
25 | CC(=O)NCCN1CCCc2c(C)c3c(n2-c2ccc(C(N)=O)c(c2)N[C@@H](C)C1=O)CC(C)(C)CC3=O | > 100 | 15771 | 17900 | > 30 | 240 | 
26 | Cc1c2c(n3c1CCCNC(=O)C[C@H](C)Nc1cc-3ccc1C(N)=O)CC(C)(C)CC2=O |  | 1842 | 3330 |  | 337 | 
